Experimental findings from the NIST ThermoML archive (doi:10.1016/j.fluid.2014.06.015) are described below.

The nature of series [1]: refractive index (Na D-line) (dimensionless). The note with it: 298.15 K; 101.33 kPa; Liquid; Standard Abbe refractometry.
The conditions of series [2]: 298.15 K; 101.33 kPa; Liquid; Vibrating tube method.

SMILES strings stand for the structures. Numbers after ± are expanded uncertainties.

As for `CCC(C)(C)O` [2-methylbutan-2-ol], the refractive index in series [1] was 1.4026 ± 0.0005. Further, in series [2], the mass density was 804.21 ± 0.24 kg/m3.
The corresponding values for `CCC(C)O` (configuration not stated) [butan-2-ol] are 1.3936 ± 0.0005 and 802.35 ± 0.13 kg/m3.
Taken in the same sequence, the figures for `OCC(O)CO` [glycerol] were 1.4726 ± 0.0005 and 1258.52 ± 0.22 kg/m3.
Take `O` [water]: in series [1], the refractive index turned out to be 1.3325 ± 0.0005.

Broadly, the refractive index is a measure of how strongly the sample bends light. As a reminder, the mass density is mass per unit of volume.
